Type in all cases: biochemical
Assay [1] concerns the target PxGSTσ2 (Plutella xylostella, UniProt Q6F443). In words: Inhibition of PxGSTσ2 recombinant protein. To be noted: read-out: 100 μM Inhibition rate %. The protocol:
(§1) Experiment: 100 μL of PBS buffer (100 mM, pH 7.2) was taken and added to a 96-well plate, 1 μg of PxGSTs recombinant protein and an appropriate concentration of the compounds PXG1-PXG29 of the present invention were added to each well, after uniformly mixing, and allowed to stand at 30° C. for 10 min. Then 100 μL of PBS buffer (100 mM, pH 7.2) containing 1 mM CDNB and 1 mM GSH was successively added to each well. Immediately after mixing, the mixture was placed in a microplate reader to measure the absorbance at a wavelength of 340 nm (A340) once every 1 min, the measurement was continued for 5 min, the light absorption values of each measuring point were recorded and the inhibition rate in vitro of the compounds PXG1-PXG29 of the present invention with different concentrations against PxGSTs recombinant protein were calculated. Each group of assays was repeated three times, and PxGSTs recombinant protein inactivated at 100° C. for 5 min was used as negative control, and GTX was used as positive control. GraphPad Prism 5 software was used for analysis and calculation of IC50. Relative inhibition was calculated using the following formula:
(§2) [formula] • wherein, A340c is the change of A340 […] the control group, an A340t is the change of A340 within 5 minutes for the experimental group.

The target in assay [2] is Nilaparvata lugens GSTs. In words: Inhibition of total GSTs enzyme of Nilaparvata lugens (CDNB method). As for the experimental part:
(§3) Experiment: About 50 mg of larvae/nymphs of nine major pests such as Plutella xylostella, Mythimna separata, Pyrausta nubilalis, Chilo suppressalis, Nilaparvata lugens, Spodoptera frugiperda, Helicoverpa armigera, Carposina sasakii, Spodoptera litura were taken, grounded in a mortar pre-cooled at −80° C., and then 1 mL of 100 mM sodium phosphate buffer (1 mM EDTA, pH 7.2) was added and fully homogenized. The homogenate was transferred to a 1.5 mL centrifuge tube at 4° C., and centrifuged at 14,000 g for 30 minutes, and the supernatant was transferred to a new centrifuge tube as the GSTs total enzyme. The protein concentrations of the above total enzymes were determined using the BCA method.
(§4) 100 μL of PBS buffer (100 mM, pH 7.2) containing 1 mM GSH was taken and placed in a 96-well plate, 5 μg of insect total GSTs enzymes and an appropriate concentration of compounds PXG1-PXG29 (29 compounds) of the present invention were added to each well, after uniformly mixing, and allowed to stand at 30° C. for 10 min. Then 100 μL of PBS buffer (100 mM, pH 7.2) containing 1 mM CDNB was added to each well. Immediately after mixing, the mixture was placed in a microplate reader to measure the absorbance at a wavelength of 340 nm (A 340) once every 1 min, the measurement was carried out continuously for 5 min, the light absorption values of each measuring point were recorded and the inhibition rate in vitro of the compounds with different concentrations against insects total GSTs enzymes were calculated. Each group of assays was repeated three times, and total GSTs enzymes inactivated at 100° C. for 5 min were used as negative controls, and GTX was used as positive controls. GraphPad Prism 5 software was used for analysis and calculation of IC50. Relative inhibition was calculated using the following formula:
(§5) [formula] • wherein, A340 is the change of A340 within 5 minutes for the control group, and A340t is the change of A340 within 5 minutes for the experimental group.

The target in assay [3] is Pyrausta nubilalis GSTs. In words: Inhibition of total GSTs enzyme of Pyrausta nubilalis (CDNB method). As for the experimental part:
as §3, §4, §5

Assay [4] deals with PxGSTσ1 (Plutella xylostella, UniProt Q6F436). In words: Inhibition of PxGSTσ1 recombinant protein. To be noted: read-out: 100 μM Inhibition rate %. As for the experimental part:
as §1, §2

Assay [5] has as its target Spodoptera frugiperda GSTs. In words: Inhibition of total GSTs enzyme of Spodoptera frugiperda (CDNB method). The protocol:
as §3, §4, §5

The target of assay [6] is Chilo suppressalis GSTs. In words: Inhibition of total GSTs enzyme of Chilo suppressalis (CDNB method). The protocol:
as §3, §4, §5

The target of assay [7] is Carposina sasakii GSTs. In words: Inhibition of total GSTs enzyme of Carposina sasakii (CDNB method). As for the experimental part: as §3, §4, §5
The target in assay [8] is Mythimna separata GSTs. In words: Inhibition of total GSTs enzyme of Mythimna separata (CDNB method). As for the experimental part:
as §3, §4, §5

Assay [9] deals with PxGSTδ1 (Plutella xylostella, UniProt D7URW9). In words: Inhibition of PxGSTδ1 recombinant protein. To be noted: read-out: 100 μM Inhibition rate %. As for the experimental part: as §1, §2
The target in assay [10] is Spodoptera litura GSTs. In words: Inhibition of total GSTs enzyme of Spodoptera litura (CDNB method). As for the experimental part:
as §3, §4, §5

Assay [11] has as its target Plutella xylostella GSTs. In words: Inhibition of total GSTs enzyme of Plutella xylostella (CDNB method). As for the experimental part: as §3, §4, §5
Assay [12] deals with PxGSTε3 (Plutella xylostella, UniProt O77409). In words: Inhibition of PxGSTε3 recombinant protein. The settings on record: read-out: 100 μM Inhibition rate %. The protocol: as §1, §2
Assay [13] concerns the target Helicoverpa armigera GSTs. In words: Inhibition of total GSTs enzyme of Helicoverpa armigera (CDNB method). As for the experimental part:
as §3, §4, §5

SMILES strings stand for the structures.

The values below come from patent publication US12617771B2, “Diphenylpyrazole compound, and preparation method therefor and application thereof” (NORTHWEST A&F UNIVERSITY, priority 2021, dated 2026).

Chain of PxGSTε3 (O77409 entry or part of it): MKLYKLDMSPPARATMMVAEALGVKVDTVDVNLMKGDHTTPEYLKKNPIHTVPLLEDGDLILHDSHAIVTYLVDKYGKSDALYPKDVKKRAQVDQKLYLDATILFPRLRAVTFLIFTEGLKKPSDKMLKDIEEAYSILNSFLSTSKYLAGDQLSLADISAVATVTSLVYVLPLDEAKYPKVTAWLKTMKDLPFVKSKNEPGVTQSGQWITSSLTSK
Chain of PxGSTσ2 (Q6F443 entry or part of it): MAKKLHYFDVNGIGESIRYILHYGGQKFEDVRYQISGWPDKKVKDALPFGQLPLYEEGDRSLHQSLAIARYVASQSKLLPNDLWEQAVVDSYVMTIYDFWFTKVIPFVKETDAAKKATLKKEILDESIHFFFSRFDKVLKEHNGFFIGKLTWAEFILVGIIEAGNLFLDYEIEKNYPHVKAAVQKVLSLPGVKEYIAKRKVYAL
Chain of PxGSTδ1 (D7URW9 entry or part of it): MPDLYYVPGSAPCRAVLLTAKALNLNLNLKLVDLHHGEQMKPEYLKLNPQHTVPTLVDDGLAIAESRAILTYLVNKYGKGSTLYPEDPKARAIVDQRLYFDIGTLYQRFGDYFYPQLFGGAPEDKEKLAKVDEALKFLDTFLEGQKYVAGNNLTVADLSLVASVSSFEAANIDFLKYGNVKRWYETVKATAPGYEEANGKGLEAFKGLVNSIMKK
Chain of PxGSTσ1 (Q6F436 entry or part of it): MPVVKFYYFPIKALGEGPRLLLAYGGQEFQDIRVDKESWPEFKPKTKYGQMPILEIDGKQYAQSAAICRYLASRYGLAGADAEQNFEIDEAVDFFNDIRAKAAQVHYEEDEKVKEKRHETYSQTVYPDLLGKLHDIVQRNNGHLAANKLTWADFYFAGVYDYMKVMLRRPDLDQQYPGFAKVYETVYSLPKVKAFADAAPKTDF

With `O=C(CC12C[C@H]3C[C@H](C1)C[C@@H](C2)C3)NNC(=O)c1cc(-c2ccccc2)nn1-c1ccccc1` [PXG26, N′-(1,3-diphenyl-1H-pyrazol-5-yl-carbonyl)-2-[(3r)-adamantan-1-yl]acetohydrazide], the inhibition at 100 µM in assay [1] was 24.7%; in assay [4], 67.9%; in [9] it was 21.6%; in [12] it was 7.12%. Further, the IC50 in assay [2], in [3], in assay [5], in assay [6], in assay [7] and in assay [8] was more than 100 µM each time. Moreover, the IC50 in [10], in [11] and in [13] was more than 100 µM each time. In addition, the “100 μM Inhibition rate %” value was 28.56% in assay [2]; −0.99% in assay [3]; 16.01% in [5]; 17.07% in [6]; 18.11% in assay [7]; 42.48% in [8]. Further, the “100 μM Inhibition rate %” value in [10] came out at 15.89%; in [11] it was 25.09%; in assay [13], 24.75%.
With `O=C(NNC(=O)c1cc(-c2ccccc2)nn1-c1ccccc1)c1ccccc1` [PXG11, N′-(1,3-diphenyl-1H-pyrazol-5-yl-carbonyl) benzohydrazine], the inhibition at 100 µM in assay [1] was 22.6%; in [4], 60.7%; in assay [9], 35.3%; in assay [12], -7.28%. For the same compound, the IC50 in assay [2], in assay [3], in assay [5], in [6], in assay [7] and in assay [8] was more than 100 µM throughout. Also, the IC50 in assay [10], in assay [11] and in assay [13] was more than 100 µM each time. The “100 μM Inhibition rate %” value worked out at 8.16% in assay [2]; 23.84% in assay [3]; 20.95% in assay [5]; 54.79% in [6]; 76.09% in assay [7]; 31.76% in [8]. Besides, the figures for the “100 μM Inhibition rate %” value in assay [10], in [11] and in [13] were 24.52%, 22.90% and 8.09%, respectively.
With `O=C(NNC(=O)c1cc(-c2ccccc2)nn1-c1ccccc1)c1cccnc1O` [PXG25, N′-(1,3-diphenyl-1H-pyrazol-5-yl-carbonyl)-2-hydroxypyridin-3-yl-carbohydrazide], the inhibition at 100 µM in [1] is 15.3%; in assay [4], -1.47%; in [9], 23.8%; in [12] it was 2.07%.
The matching figures for `O=C(NNC(=O)C1CCCC1)c1cc(-c2ccccc2)nn1-c1ccccc1` [PXG28, N′-(1,3-diphenyl-1H-pyrazol-5-yl-carbonyl) cyclopentyl carbohydrazide]: 23.4%, 19.5%, 70.9% and 0.96%.
In the case of `O=C(NNC(=O)c1cc(-c2ccccc2)nn1-c1ccccc1)c1ccc(=O)[nH]n1` [PXG27, N′-(1,3-diphenyl-1H-pyrazol-5-yl-carbonyl)-6-oxo-1,6-dihydropyridazin-3-yl-carbohydrazide], the inhibition at 100 µM in assay [1] worked out at 42.4%; in [4], 25.1%; in assay [9] it was 41.7%; in [12], 17.6%.
The like results for `CCOC(=O)NNC(=O)c1cc(-c2ccccc2)nn1-c1ccccc1` [PXG24, N′-(ethoxycarbonyl)-1,3-diphenyl-1H-pyrazol-5-yl-carbohydrazide] were, in that order, 19.7%, 14.9%, 23.1% and 28.3%.
As to `CCC1(C)NC(=O)N(NC(=O)c2cc(-c3ccccc3)nn2-c2ccccc2)C1=O` (stereo not shown) [PXG13, N-(4-ethyl-4-methyl-2,5-dioxaimidazolin-1-yl)-1,3-diphenyl-1H-pyrazol-5-yl-carboxamide], the inhibition at 100 µM in assay [1] amounted to 22.8%; in assay [4], 34.2%; in assay [9] it was 14.1%; in assay [12] it was 18.4%.
The matching figures for `COc1ccc(C2(C)NC(=O)N(NC(=O)c3cc(-c4ccccc4)nn3-c3ccccc3)C2=O)cc1` (stereo not shown) [PXG14, N-[4-(4-methoxyphenyl)-4-methyl-2,5-dioxaimidazolin-1-yl]-1,3-diphenyl-1H-pyrazol-5-yl-carboxamide]: 36.4%, 52.2%, 14.9% and 15.3%.
For `O=C(NNC(=O)c1cc(-c2ccc(Cl)cc2)nn1-c1ccccc1)c1cccnc1` [PXG7, N′-[3-(4-chlorophenyl)-1-phenyl-1H-pyrazol-5-yl-carbonyl]pyridin-3-yl-carbohydrazide], the inhibition at 100 µM is 20.1% in [1], 35.1% in [4], 55.7% in assay [9] and 5.93% in assay [12].
For `COc1cccc(C2(C)NC(=O)N(NC(=O)c3cc(-c4ccccc4)nn3-c3ccccc3)C2=O)c1` (stereo not shown) [PXG17, N-[4-(3-methoxyphenyl)-4-methyl-2,5-dioxaimidazolin-1-yl]-1,3-diphenyl-1H-pyrazol-5-yl-carboxamide], the inhibition at 100 µM in assay [1] was 43.9%; in [4], 48.9%; in assay [9], 2.22%; in [12] it was 4.43%.
For `O=C(NNC(=O)[C@@H]1COc2ccccc2O1)c1cc(-c2ccccc2)nn1-c1ccccc1` [PXG8, (2S)-N′-(1,3-diphenyl-1H-pyrazol-5-yl-carbonyl)-2,3-dihydro-1,4-benzodioxin-2-yl-carbohydrazide], the inhibition at 100 µM in [1] was 42.4%; in [4], 37.8%; in assay [9], 69.5%; in [12], -3.3%.
For `O=C(NNC(=O)c1cc(-c2ccc(Cl)cc2)nn1-c1ccccc1)c1ccccn1` [PXG20, N′-[3-(4-chlorophenyl)-1-phenyl-1H-pyrazol-5-yl-carbonyl]pyridin-2-yl-carbohydrazide], the inhibition at 100 µM in [1] is 29.6%; in assay [4], 71.8%; in [9], 23%; in assay [12], -15.7%.
With `CCn1c(C)nc2cc(C(=O)NNC(=O)c3cc(-c4ccccc4)nn3-c3ccccc3)ccc21` [PXG21, N′-(1-ethyl-2-methyl-1H-1,3-benzodiazol-5-yl-carbonyl)-1,3-diphenyl-1H-pyrazol-5-yl-carbohydrazide], the inhibition at 100 µM is 11.7% in [1], 44.9% in [4], 7.82% in assay [9] and -2.67% in [12].
